{
  "source": "patent US20040158036A1",
  "about": "“Neuritogenic compound and uses thereof” (priority 2004, published 2004)",
  "key": {"explanted DRG [1]": {"tested_on": "explanted DRG", "test": "Neurite outgrowth from explanted DRG cultures (Example 3)", "type": "cell-based, C57/B16 mice", "settings": "for neurite outgrowth relative to non-treated cultures / INGAP peptide-stimulated neurite outgrowth after preincubation with anti-NGF antibody: INGAP peptide 1000 ng/mL; for neurite outgrowth relative to non-treated cultures: NGF 50 ng/mL, 17-β-estradiol 10 nM, 4 and 7 days; for overall length and density of neurite outgrowth vs non-treated DRG: 4 days in culture; for neurite outgrowth in combination with 17-β-estradiol vs either drug alone: INGAP peptide 1000 ng/mL + 17-β-estradiol 10 nM; for neurite outgrowth in combination with NGF vs INGAP peptide alone: INGAP peptide 1000 ng/mL + NGF 50 ng/mL; for INGAP peptide-stimulated neurite outgrowth after preincubation with anti-NGF antibody: cultures pre-incubated with anti-NGF antibody", "procedure": "(§1) DRG (L3, L4, L5) were dissected from wild-type C57/B16 mice <, and DRG explants were cultured in […] of Matrigel at 37° C. (5% CO2) for 24 h in phenol-red free RPMI 1640 media-free supplemented with 1% penicillin/streptomycin. Neurite outgrowth was followed for 7 days and was visualized with an OLYMPUS™ BX51 system microscope equipped with a Dage-MTI CCD300-RC camera coupled to a Powermate™ 8100 Pentium™III computer (NEC Corp.) with 128 MB RAM. Bright-field microscope images were stored in uncompressed tagged image file format (TIFF) at a resolution of 600 d.p.i. and analyzed using MCID-M5+5.1 image analysis software (Imaging Research Inc.) and SYSTAT 9 statistical software (SPSS Inc.).\n(§2) In all experiments, statistical significance was determined using one-way ANOVA and post-hoc Dunnett's test. The experimental group size was n=4-5, and differences were considered significant where P<0.05."}, "[2]": {"tested_on": "dorsal route ganglia (DRG) explant cultures", "test": "Neurite outgrowth in DRG explant cultures (Example 1)", "type": "cell-based, male C57BL/6 mice", "settings": "DRG explants", "procedure": "Using male C57BL/6 mice, dorsal route ganglia (DRG) explant cultures were established to examine the effect of the INGAP peptide of the present invention on neurite outgrowth (FIG. 1). DRG (L3, L4) were dissected from male C57BL/6 mice, and DRG explants were cultured in 14 uL of Matrigel in 2 ml of RPMI 1640 media+1% antibiotic."}, "[3]": {"tested_on": "cells associated with the ductal epithelium", "settings": "normal, adult mouse; cited from earlier work"}, "[4]": {"tested_on": "cells associated with the ductal epithelium", "settings": "normal, adult hamster; cited from earlier work"}, "explanted DRG [5]": {"tested_on": "explanted DRG", "test": "MTT assay, mitochondrial activity in explanted DRG (Example 3)", "type": "cell-based, C57/B16 mice", "procedure": "as §1\nFor cell viability assays, MTT was dissolved in phosphate buffered saline (1.9 mM NaH2PO4, 8.1 mM Na2HPO4, 154 mM NaCl) and applied to DRG explant cultures at a concentration of 1.2 mM for 2 h at (37° C., 5% CO2). Media were then aspirated, and each DRG explant was incubated in […] of DMSO for 1 h. […] of DMSO from each explant was transferred to a 96-well plate and absorbance at 595 nm was read on a Bio-Rad Benchmark plate reader.\nas §2"}, "DRG explants": {"tested_on": "DRG explants", "test": "[3H]thymidine incorporation in DRG explants (Example 3)", "type": "cell-based, C57/B16 mice", "settings": "4 days in culture; for [3H] thymidine incorporation relative to non-treated controls: 100 ng/mL", "procedure": "as §1\nFor [3H]thymidine incorporation assays, serum-starved DRG ex-plants cultured in Matrigel were exposed to Ingap (100-1000 ng/mL) for 48 h. 1 p Ci/ml of [3H]thymidine was added to each DRG and kept for an additional 48 h, after which time the DRG were washed four times with ice-cold trichloroacetic acid (10%). Ganglia were lysed on ice in 100pL of tissue solubilizer (NCS-II, Amersham). Lysates were transferred to individual 4 mL scintillation counting vials, and 4 mL of liquid scintillation counting cocktail (Fischer SX25-5 ScintiSafe Plus 50%) was added to each lysate. Counting was performed on a Wallac 1410 liquid scintillation counter.\nas §2"}, "DRG explant cultures": {"tested_on": "DRG explant cultures", "test": "MTT assay of DRG cell viability (Example 2)", "type": "cell-based, Balb/C mice", "procedure": "Using DRG explant cultures, we examined the effects of the INGAP peptide of the present invention, as well as other agents, on DRG cell viability using the MTT assay (FIG. 2). DRG (L3, L4) were dissected from Balb/C mice, and DRG explants were cultured in 14 uL of Matrigel in 2 ml of RPMI 1640 media+1% antibiotic. After 48 hours, INGAP, β-estradiol, and/or FK506 were added to the explant cultures as indicated. MTT assay was performed 7 days after the addition of drugs. Data were analyzed using one-way ANOVA with post-hoc Tuckey” test. Differences were consider significant where p<0.05. (n=3-4 per treatment group)."}},
  "note": "“Also recorded” adds a separate entry of the source. Like-named read-outs stand apart in the source and are kept apart here. Ends that are not written are not given here.",
  "data": [
    {"compound": "C[C@]12CC[C@@H]3c4ccc(O)cc4CC[C@H]3[C@@H]1CC[C@@H]2O", "note": "[17-β-estradiol, reference compound]", "values": [
      {"measurement": "neurite outgrowth relative to non-treated cultures", "setting": "explanted DRG [1]", "result": "strong neurite outgrowth"}
    ]},
    {"compound": "GLHDPSHGTLPNGSG [15-amino-acid fragment (amino acids 104-118) of Islet Neogenesis Associated Protein]", "values": [
      {"measurement": "neurite-promoting effect compared with nerve growth factor (NGF)", "setting": "[2]", "result": "comparable"},
      {"measurement": "neurite-promoting effect", "setting": "[2]; FIG. 1", "result": "effective, in a dose-dependent fashion, as a neurite-promoting agent"},
      {"measurement": "islet-cell neogenesis, new islet formation", "setting": "[3]", "result": "potent inducer of islet-cell neogenesis"},
      {"measurement": "islet-cell neogenesis, new islet formation", "setting": "[4]", "result": "potent inducer of islet-cell neogenesis"},
      {"measurement": "mitochondrial activity (MTT reduction) vs non-treated controls", "setting": "explanted DRG [5]; 1000 ng/mL, 4 days in culture", "result": "significant increase in mitochondrial activity"},
      {"measurement": "mitochondrial activity (MTT reduction) vs non-treated controls", "setting": "explanted DRG [5]; 1000 ng/mL, 4 days in culture, listed as INGAP", "result": "significantly larger MTT reduction"},
      {"measurement": "mitochondrial activity (MTT reduction) vs non-treated controls", "setting": "explanted DRG [5]; 100, 500, 1000 ng/mL, 24 h in culture", "result": "no significant effects"},
      {"measurement": "mitochondrial activity (MTT reduction) vs non-treated controls", "setting": "explanted DRG [5]; 100, 500, 1000 ng/mL, 24 h in culture, listed as INGAP", "result": "no significant effect"},
      {"measurement": "mitochondrial activity (MTT reduction) vs non-treated controls", "setting": "explanted DRG [5]; 500 and 1000 ng/mL, 7 days in culture, P>0.05", "result": "trend toward enhanced cell viability"},
      {"measurement": "[3H] thymidine incorporation relative to non-treated controls", "setting": "DRG explants", "result": "no significant effects"},
      {"measurement": "[3H] thymidine incorporation relative to non-treated controls", "setting": "DRG explants; listed as INGAP", "result": "no significant effect"},
      {"measurement": "increase in [3H] thymidine incorporation relative to non-treated controls", "setting": "DRG explants; 500 ng/mL", "result": 3, "unit": "fold"},
      {"measurement": "neurite outgrowth vs non-treated DRG", "setting": "explanted DRG [1]; 100 ng/mL, any time point examined", "result": "No effects"},
      {"measurement": "neurite outgrowth vs non-treated DRG", "setting": "explanted DRG [1]; 100 ng/mL, any time point examined, listed as INGAP", "result": "did not have a significant effect"},
      {"measurement": "overall length and density of neurite outgrowth vs non-treated DRG", "setting": "explanted DRG [1]; 500 ng/mL, listed as INGAP", "result": "significant enhancement"},
      {"measurement": "overall length and density of neurite outgrowth vs non-treated DRG", "setting": "explanted DRG [1]; 500 ng/mL", "result": "Significant effects"},
      {"measurement": "neurite outgrowth vs non-treated DRG", "setting": "explanted DRG [1]; 1000 ng/mL, 7 days in culture", "result": "continued to significantly enhance neurite outgrowth"},
      {"measurement": "overall length and density of neurite outgrowth vs non-treated DRG", "setting": "explanted DRG [1]; 1000 ng/mL", "result": "Significant effects"},
      {"measurement": "overall length and density of neurite outgrowth vs non-treated DRG", "setting": "explanted DRG [1]; 1000 ng/mL, listed as INGAP", "result": "significant enhancement"},
      {"measurement": "neurite outgrowth vs non-treated DRG", "setting": "explanted DRG [1]; 24 h, regardless of the drug concentration", "result": "no significant differences"},
      {"measurement": "optimal dose for neurite outgrowth", "setting": "explanted DRG [1]; DRG explants", "result": 1000, "unit": "ng/mL"},
      {"measurement": "neurite outgrowth in combination with 17-β-estradiol vs either drug alone", "setting": "explanted DRG [1]", "result": "No significant enhancement"},
      {"measurement": "neurite outgrowth in combination with 17-β-estradiol vs either drug alone", "setting": "explanted DRG [1]; listed as INGAP", "result": "not significantly different"},
      {"measurement": "neurite outgrowth in combination with NGF vs INGAP peptide alone", "setting": "explanted DRG [1]", "result": "enhances neurite outgrowth"},
      {"measurement": "neurite outgrowth in combination with NGF vs INGAP peptide alone", "setting": "explanted DRG [1]; listed as INGAP", "result": "Enhanced effects on neurite outgrowth"},
      {"measurement": "neurite outgrowth relative to non-treated cultures", "setting": "explanted DRG [1]", "result": "strong neurite outgrowth; also recorded: stimulates neurite outgrowth from the DRG explants, to an extent similar to that of the prototypical growth factor"},
      {"measurement": "neurite outgrowth relative to non-treated cultures", "setting": "explanted DRG [1]; listed as INGAP", "result": "stimulates neurite outgrowth to an extent similar to that of NGF"},
      {"measurement": "INGAP peptide-stimulated neurite outgrowth after preincubation with anti-NGF antibody", "setting": "explanted DRG [1]", "result": "marked reduction"},
      {"measurement": "INGAP peptide-stimulated neurite outgrowth after preincubation with anti-NGF antibody", "setting": "explanted DRG [1]; listed as INGAP", "result": "strong reduction"},
      {"measurement": "MTT reduction (cell viability)", "setting": "DRG explant cultures; doses 100 ng/mL to 1,500 ng/mL, MTT 7 days after addition of drugs", "result": "tremendous increase in MTT reduction"},
      {"measurement": "dose of maximal effect on MTT reduction", "setting": "DRG explant cultures; no significant change with 1000 or 1,500 ng/mL", "result": 500, "unit": "ng/mL"}
    ]},
    {"compound": "NGF: conventional neurotrophic agent, nerve growth factor [reference compound]", "values": [
      {"measurement": "neurite outgrowth relative to non-treated cultures", "setting": "explanted DRG [1]", "result": "strong neurite outgrowth"}
    ]}
  ]
}
